The target in one experiment is T1, F508del (Homo sapiens, UniProt P13569, DEL508-508).
T1 construct: expressed in transfected cells
T1 sequence (P13569 with tags, fused parts or gaps DEL508-508): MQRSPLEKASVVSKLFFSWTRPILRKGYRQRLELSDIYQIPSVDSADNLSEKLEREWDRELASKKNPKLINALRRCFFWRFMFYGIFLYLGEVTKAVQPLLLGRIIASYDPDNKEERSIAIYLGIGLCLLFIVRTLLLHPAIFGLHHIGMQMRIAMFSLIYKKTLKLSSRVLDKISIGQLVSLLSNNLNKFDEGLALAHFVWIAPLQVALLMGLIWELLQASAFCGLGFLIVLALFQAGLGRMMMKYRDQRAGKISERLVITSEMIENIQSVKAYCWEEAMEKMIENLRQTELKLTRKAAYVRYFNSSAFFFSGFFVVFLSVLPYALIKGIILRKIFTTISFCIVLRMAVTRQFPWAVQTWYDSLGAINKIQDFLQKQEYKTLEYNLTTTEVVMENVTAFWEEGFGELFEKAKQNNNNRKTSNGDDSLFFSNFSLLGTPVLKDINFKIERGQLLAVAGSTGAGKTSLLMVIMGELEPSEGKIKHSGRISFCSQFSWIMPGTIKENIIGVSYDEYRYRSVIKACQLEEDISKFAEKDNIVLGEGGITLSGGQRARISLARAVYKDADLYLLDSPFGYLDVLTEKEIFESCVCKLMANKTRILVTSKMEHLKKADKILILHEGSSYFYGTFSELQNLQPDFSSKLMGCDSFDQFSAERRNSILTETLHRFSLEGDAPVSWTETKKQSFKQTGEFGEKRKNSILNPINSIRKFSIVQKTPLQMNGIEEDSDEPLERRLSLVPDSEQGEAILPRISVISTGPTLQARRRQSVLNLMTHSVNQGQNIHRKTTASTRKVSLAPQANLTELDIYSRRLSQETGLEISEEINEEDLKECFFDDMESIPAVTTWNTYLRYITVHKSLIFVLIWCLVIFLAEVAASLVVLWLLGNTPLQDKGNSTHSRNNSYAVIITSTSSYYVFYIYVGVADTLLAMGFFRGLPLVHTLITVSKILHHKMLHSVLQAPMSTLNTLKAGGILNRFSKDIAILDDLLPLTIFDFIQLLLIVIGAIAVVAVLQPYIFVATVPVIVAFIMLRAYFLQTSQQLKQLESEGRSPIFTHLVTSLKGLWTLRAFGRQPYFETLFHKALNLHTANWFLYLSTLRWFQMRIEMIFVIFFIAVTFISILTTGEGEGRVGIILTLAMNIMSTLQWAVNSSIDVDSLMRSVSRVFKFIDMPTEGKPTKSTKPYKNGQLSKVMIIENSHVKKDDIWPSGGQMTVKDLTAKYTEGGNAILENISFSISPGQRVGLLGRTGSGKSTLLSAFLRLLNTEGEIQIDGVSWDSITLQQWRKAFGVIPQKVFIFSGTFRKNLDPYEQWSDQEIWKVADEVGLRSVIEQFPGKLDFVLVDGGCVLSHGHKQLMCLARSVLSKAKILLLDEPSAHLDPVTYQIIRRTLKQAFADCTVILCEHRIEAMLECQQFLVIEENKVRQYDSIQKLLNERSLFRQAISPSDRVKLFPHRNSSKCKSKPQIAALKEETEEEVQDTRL
In words: Protocol 2: FRET membrane potential optical assay (VIPR), identification of correction compounds. The experiment is classed as cell-based. The conditions noted are these: F508del CFTR modulator activity; compounds of Table 1; read-out: EC30. Summed up: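 NIH3T3 mouse fibroblasts stably expressing F508del were treated with test compound for 16 hrs at 37° C. in serum-free medium; 27° C. incubation served as positive control. F508del was activated with 10 μM forskolin plus 20 μM genistein in Cl^−-free medium, and Cl^− efflux-driven depolarization was read by DiSBAC2(3)/CC2-DMPE FRET.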
As for `CC1CN(c2ncccc2C(=O)NS(=O)(=O)c2cccc(NCc3cccc(Cl)c3)n2)C(C)(C)C1` (centres unmarked) [Compound 2064, N—[[6-[(3-chlorophenyl)methylamino]-2-pyridyl]sulfonyl]-2-(2,2,4-trimethylpyrrolidin-1-yl)pyridine-3-carboxamide], the EC30 – broadly, the point of the concentration-response curve where the effect stands at 30% – was less than 3 µM. On the same count and under the same terms, under `CC(C)COc1cc(F)cc(-c2ccc(C(=O)NS(=O)(=O)c3cccc(N)n3)c(C3CC(C)(C)CC3(C)C)n2)c1` (single isomer, unassigned) [Compound 2374, N-[(6-amino-2-pyridyl)sulfonyl]-6-(3-fluoro-5-isobutoxy-phenyl)-2-(2,2,4,4-tetramethylcyclopentyl)pyridine-3-carboxamide] stands less than 3 µM. On the same count and under the same terms, under `CC1CN(c2ncccc2C(=O)NS(=O)(=O)c2cccc(OCC3COc4ccccc4C3)n2)C(C)(C)C1` (centres unmarked) [Compound 2595, N—[[6-(chroman-3-ylmethoxy)-2-pyridyl]sulfonyl]-2-(2,2,4-trimethylpyrrolidin-1-yl)pyridine-3-carboxamide] stands less than 3 µM.

Consider `CC1CN(c2ncccc2C(=O)NS(=O)(=O)c2cccc(OCCC3CCCC3)n2)C(C)(C)C1` (centres unmarked) [Compound 2630, N—[[6-(2-cyclopentylethoxy)-2-pyridyl]sulfonyl]-2-(2,2,4-trimethylpyrrolidin-1-yl)pyridine-3-carboxamide], for which the EC30 is less than 3 µM. Turning to `CC(C)Oc1ccccc1-c1ccc(C(=O)NS(=O)(=O)c2ccc[nH]c2=O)c(N2C[C@@H](C)CC2(C)C)n1` [Compound 2541, 6-(2-isopropoxyphenyl)-N-[(2-oxo-1H-pyridin-3-yl)sulfonyl]-2-[(4S)-2,2,4-trimethylpyrrolidin-1-yl]pyridine-3-carboxamide], the EC30 was less than 3 µM. With `Cc1cc(OCC(C)C)nn1-c1ccc(C(=O)NS(=O)(=O)c2cccnc2N)c(N2C[C@@H](C)CC2(C)C)n1` [Compound 2238, N-[(2-amino-3-pyridyl)sulfonyl]-6-(3-isobutoxy-5-methyl-pyrazol-1-yl)-2-[(4S)-2,2,4-trimethylpyrrolidin-1-yl]pyridine-3-carboxamide], the 30% effect concentration (EC30) is less than 3 µM. Same read-out and setting: under `CC1CN(c2ncccc2C(=O)NS(=O)(=O)c2cccc(Nc3cccc(C(F)(F)F)c3)n2)C(C)(C)C1` (centres unmarked) [Compound 2381, N—[[6-[3-(trifluoromethyl)anilino]-2-pyridyl]sulfonyl]-2-(2,2,4-trimethylpyrrolidin-1-yl)pyridine-3-carboxamide] stands less than 3 µM. On the same count and under the same terms, under `COc1cccc(-c2ccc(C(=O)NS(=O)(=O)c3cccnc3N)c(N3C[C@@H](C)CC3(C)C)n2)c1F` [Compound 2562, N-[(2-amino-3-pyridyl)sulfonyl]-6-(2-fluoro-3-methoxy-phenyl)-2-[(4S)-2,2,4-trimethylpyrrolidin-1-yl]pyridine-3-carboxamide] stands less than 3 µM; under `CC(C)COc1cc(F)cc(-c2ccc(C(=O)NS(=O)(=O)c3cccc(N)n3)c(N3CC(C(C)C)CC3(C)C)n2)c1` (centres unmarked) [Compound 2201, N-[(6-amino-2-pyridyl)sulfonyl]-6-(3-fluoro-5-isobutoxy-phenyl)-2-(4-isopropyl-2,2-dimethyl-pyrrolidin-1-yl)pyridine-3-carboxamide], less than 3 µM.

For `CCCCN1CCCN(c2cccc(S(=O)(=O)NC(=O)c3cccnc3N3CC(C)CC3(C)C)n2)CC1` (centres unmarked) [Compound 2620, N—[[6-(4-butyl-1,4-diazepan-1-yl)-2-pyridyl]sulfonyl]-2-(2,2,4-trimethylpyrrolidin-1-yl)pyridine-3-carboxamide], the EC30 was in the range of 3 to 10 µM. Still for that read-out and setting: under `CCOc1ccc(F)cc1-c1ccc(C(=O)NS(=O)(=O)c2cccnc2N)c(N2C[C@@H](C)CC2(C)C)n1` [Compound 2071, N-[(2-amino-3-pyridyl)sulfonyl]-6-(2-ethoxy-5-fluoro-phenyl)-2-[(4S)-2,2,4-trimethylpyrrolidin-1-yl]pyridine-3-carboxamide] stands less than 3 µM.

Regarding `CC1CN(c2ncc(-c3ccccc3Cl)cc2C(=O)NS(=O)(=O)c2cccc(N)n2)C(C)(C)C1` (centres unmarked) [Compound 2312, N-[(6-amino-2-pyridyl)sulfonyl]-5-(2-chlorophenyl)-2-(2,2,4-trimethylpyrrolidin-1-yl)pyridine-3-carboxamide], the 30% effect concentration (EC30) is less than 3 µM.

In the case of `CC(=O)c1ccc(Nc2cccc(S(=O)(=O)NC(=O)c3cccnc3N3CC(C)CC3(C)C)n2)cc1` (centres unmarked) [Compound 2328, N—[[6-(4-acetylanilino)-2-pyridyl]sulfonyl]-2-(2,2,4-trimethylpyrrolidin-1-yl)pyridine-3-carboxamide], the EC30 lay within 3 to 10 µM.

Still in this experiment, the particulars now being: Table 3; compounds of Table 1 as modulators of CFTR activity; protocol not stated.
For `Cc1cccc(C)c1Cn1nc(-c2cccc(OC(C)(C)C)c2)cc1C(=O)NS(=O)(=O)c1ccccc1` [Compound 744, N-(benzenesulfonyl)-5-(3-tert-butoxyphenyl)-2-[(2,6-dimethylphenyl)methyl]pyrazole-3-carboxamide], the EC30 entry is recorded as “+++ (“+++” means <3 uM)”. Still for that read-out and setting: under `Cc1ccc(-c2nc3c(cc2C(=O)NS(=O)(=O)c2ccc(N)nc2)CCCC3(C)C)cc1` [Compound 635, N-[(6-amino-3-pyridyl)sulfonyl]-8,8-dimethyl-2-(p-tolyl)-6,7-dihydro-5H-quinoline-3-carboxamide] stands “+ (“+” means greater than 10 uM)”; under `Cc1cc(C)c(CN2Cc3ccccc3CCC2C(=O)NS(=O)(=O)c2cccc(N)n2)c(C)c1` (centres unmarked) [Compound 690, N-[(6-amino-2-pyridyl)sulfonyl]-2-[(2,4,6-trimethylphenyl)methyl]-1,3,4,5-tetrahydro-2-benzazepine-3-carboxamide], “++ (“++” means between 3 uM and 10 uM)”; under `Cc1cc(C(=O)NS(=O)(=O)c2cccc(N)n2)c(N2[C@H](C)CC[C@@H]2C)nc1-c1cc(F)cc(OCC(C)C)c1` [Compound 483, N-[(6-amino-2-pyridyl)sulfonyl]-2-[(2R,5S)-2,5-dimethylpyrrolidin-1-yl]-6-(3-fluoro-5-isobutoxy-phenyl)-5-methyl-pyridine-3-carboxamide], “+++ (“+++” means <3 uM)”. The same measure, in the same setting: under `CCOc1cccc(-c2ccc(C(=O)NS(=O)(=O)c3cccc(N)n3)c(Oc3c(C)cc(C)cc3C)n2)c1` [Compound 61, N-[(6-amino-2-pyridyl)sulfonyl]-6-(3-ethoxyphenyl)-2-(2,4,6-trimethylphenoxy)pyridine-3-carboxamide] stands “+++ (“+++” means <3 uM)”. Consider `Cc1cccc(C)c1Cn1nc(C(C)(C)C)cc1C(=O)NS(=O)(=O)c1cccc2c1OCC2` [Compound 211, 5-tert-butyl-N-(2,3-dihydrobenzofuran-7-ylsulfonyl)-2-[(2,6-dimethylphenyl)methyl]pyrazole-3-carboxamide], for which the 30% effect concentration (EC30) entry is “++ (“++” means between 3 uM and 10 uM)”.

As for `CCC1CCN(c2nc(-c3cc(F)cc(OCC(C)C)c3)ccc2C(=O)NS(=O)(=O)c2cccc(N)n2)CC1` [Compound 615, N-[(6-amino-2-pyridyl)sulfonyl]-2-(4-ethyl-1-piperidyl)-6-(3-fluoro-5-isobutoxy-phenyl)pyridine-3-carboxamide], the concentration for an effect of 30% (EC30) result is recorded as “+++ (“+++” means <3 uM)”.

Regarding `CC(C)COc1cc(F)cc(-c2ccc(C(=O)NS(=O)(=O)c3cccc(N)n3)c(N3CCCC3(C)C)n2)c1` [Compound 361, N-[(6-amino-2-pyridyl)sulfonyl]-2-(2,2-dimethylpyrrolidin-1-yl)-6-(3-fluoro-5-isobutoxy-phenyl)pyridine-3-carboxamide], the EC30 result was “+++ (“+++” means <3 uM)”. Still for that read-out and setting: under `CC(C)COc1cc(F)cc(-c2ccc(C(=O)NS(=O)(=O)c3cccc(N)n3)c(N3CCCC(C4CC4)C3)n2)c1` (centres unmarked) [Compound 655, N-[(6-amino-2-pyridyl)sulfonyl]-2-(3-cyclopropyl-1-piperidyl)-6-(3-fluoro-5-isobutoxy-phenyl)pyridine-3-carboxamide] stands “+++ (“+++” means <3 uM)”; under `Cc1cc(C)c(Cn2c(C(=O)NS(=O)(=O)c3cccc(N)c3)cc3ccc(Cl)cc32)c(C)c1` [Compound 9, N-(3-aminophenyl)sulfonyl-6-chloro-1-[(2,4,6-trimethylphenyl)methyl]indole-2-carboxamide], “+++ (“+++” means <3 uM)”; under `Cc1ccc(-c2nc(C(C)(C)C)ccc2C(=O)NS(=O)(=O)c2cccnc2N)cc1` [Compound 636, N-[(2-amino-3-pyridyl)sulfonyl]-6-tert-butyl-2-(p-tolyl)pyridine-3-carboxamide], “++ (“++” means between 3 uM and 10 uM)”.

For the compound `Cc1cc(C)c(Oc2nc(-c3ccccc3)ccc2C(=O)NS(=O)(=O)c2ccn[nH]2)c(C)c1` [Compound 784, 6-phenyl-N-(1H-pyrazol-5-ylsulfonyl)-2-(2,4,6-trimethylphenoxy)pyridine-3-carboxamide], the EC30 result is listed as “+++ (“+++” means <3 uM)”. On the same count and under the same terms, under `Cc1cc(C)c(Cn2c(C(=O)NS(=O)(=O)c3ccnc(N)c3)cc3ccccc32)c(C)c1` [Compound 627, N-[(2-amino-4-pyridyl)sulfonyl]-1-[(2,4,6-trimethylphenyl)methyl]indole-2-carboxamide] stands “+ (“+” means greater than 10 uM)”; under `Cc1cc(C)c(Oc2nc(C(F)(F)F)ccc2C(=O)NS(=O)(=O)c2cccc(N)n2)c(C)c1` [Compound 175, N-[(6-amino-2-pyridyl)sulfonyl]-6-(trifluoromethyl)-2-(2,4,6-trimethylphenoxy)pyridine-3-carboxamide], “++ (“++” means between 3 uM and 10 uM)”. Turning to `Cc1cc(C)c(Oc2nc(Cc3ccccc3)ccc2C(=O)NS(=O)(=O)c2cccc(N)n2)c(C)c1` [Compound 1, N-[(6-amino-2-pyridyl)sulfonyl]-6-benzyl-2-(2,4,6-trimethylphenoxy)pyridine-3-carboxamide], the EC30 entry is recorded as “+++ (“+++” means <3 uM)”.

Consider `CC(C)(C)c1ccc(C(=O)NS(=O)(=O)c2cccc(N)n2)c(-c2ccccc2)n1` [Compound 334, N-[(6-amino-2-pyridyl)sulfonyl]-6-tert-butyl-2-phenyl-pyridine-3-carboxamide], for which the concentration for an effect of 30% (EC30) entry was “++ (“++” means between 3 uM and 10 uM)”.

Values taken from US10758534B2 (Vertex Pharmaceuticals Incorporated, priority 2014, dated 2020).
